Test results: PubChem BioAssay AID1249 (Columbia University Molecular Screening Center, 2008)
Calls of active or inactive are those of the source. The rule behind the calls is not given here.

Assay: modifiers of cytoskeleton assembly, confirmation, imaging, high-content imaging, retest and dose response (AID 1249);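 note: compound exposure lasted 24 h before fixation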;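 for inhibition: plate controls were untreated cells for no effect and reference compound treated cells for full effect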
Details: cell-based imaging, cytoskeleton assembly phenotype, high content; at 2 µM; stronger effect = higher value
With `CCOC(=O)C1=C(CSc2nc3c(cc2C#N)CN(C)CC3)OC(N)=C(C#N)C1c1ccccc1` (centres undefined) the inhibition was 1.4% (inactive). For `O=C(Nc1cnccn1)C1c2ccccc2Oc2ccccc21`, the inhibition was 9.9% (inactive). For `Cc1ccc(O)c(NC(=O)C2CC(c3c(F)cccc3Cl)=NO2)c1` (centres undefined), the inhibition was -4.4% (inactive). For `O=C1OCC(CO)(CO)N=C1NNc1ccccc1Cl`, the inhibition was 19.6% (inactive). With `O=C1c2cccc3c([N+](=O)[O-])ccc(c23)C(=O)N1c1nccs1` the inhibition was -0.1% (inactive). For `CC(C)(C)NS(=O)(=O)c1ccc(Oc2ncc(C(F)(F)F)cc2Cl)cc1`, the inhibition was 12.1% (inactive). With `Nc1ccccc1NC(=O)c1ccccc1N` the inhibition was 3.6% (inactive). In the case of `Cc1n[nH]c(=O)nc1NCc1ccccc1`, the inhibition is reported as 4% (inactive). In the case of `CC(=O)c1cccc(Nc2nc(-c3cccc([N+](=O)[O-])c3)cs2)c1`, the inhibition is reported as -7.7% (inactive). In the case of `O=c1c2c3c(sc2nc2n1CCC2)CCC3`, the inhibition is reported as -14.6% (inactive). In the case of `O=C(Nc1nccs1)c1cccc(N2C(=O)c3cccc4c([N+](=O)[O-])ccc(c34)C2=O)c1`, the inhibition is reported as -8.2% (inactive). For `CO/N=C/C(=N\Nc1ccc(C)cc1)C(=O)c1ccc(OC)cc1`, the inhibition was -0.5% (inactive). For `CCN1CCN(Cc2c(C)[nH]c3ccc(C(=O)OC)cc3c2=O)CC1`, the inhibition was -6.7% (inactive). With `COc1ccc(S(=O)(=O)Nc2cc3c(C(C)=O)c(C)oc3c3ccccc23)cc1` the inhibition was -5.1% (inactive). In the case of `C/C(=N\Nc1nc2c(s1)CCCC2)c1ccccc1`, the inhibition is reported as -2.4% (inactive). With `CN1CCc2nc3sc(C#N)c(N)c3c(-c3cccs3)c2C1` the inhibition was 5.3% (inactive). With `Cc1ccc(C)c(NC(=O)c2nnn(Cc3ccccc3)c2N)c1` the inhibition was -0.1% (inactive). In the case of `O=C(NCCO)C(c1ccccc1)c1ccccc1`, the inhibition is reported as 3.5% (inactive). With `Cc1csc(NC(=O)CSc2nnc(-c3cccs3)n2C)n1` the inhibition was -10.1% (inactive). In the case of `NCCN1CCN(CCN)CC1`, the inhibition is reported as -3% (inactive). In the case of `Cc1csc(NC(=O)CSc2nnc(-c3ccc(S(=O)(=O)N4CCCC4)cc3)o2)n1`, the inhibition is reported as 4.6% (inactive). For `C#CC(=O)N(c1cccc(OC)c1)C(C(=O)NC1CCCC1)c1cccs1` (centres undefined), the inhibition was -5.8% (inactive). For `CCc1nnc(NC(=O)C2c3ccccc3Oc3ccccc32)s1`, the inhibition was 2.3% (inactive). With `COc1ccc(N2CCN(C(=O)CSc3nnc4c(C)cc5cc(C)ccc5n34)CC2)cc1` the inhibition was 3.6% (inactive). For `O=C(COC(=O)C1c2ccccc2Oc2ccccc21)NC1CCS(=O)(=O)C1` (centres undefined), the inhibition was -16.7% (inactive). For `COc1ccc(NC(=O)C(NC(=O)c2ccccc2)C(C)C)cc1` (centres undefined), the inhibition was 4.5% (inactive). For `Cc1ccccc1CN1C(=O)C2(OCCCO2)c2ccccc21`, the inhibition was 3.7% (inactive). With `Nc1nnc(SCC(=O)NCc2ccc3c(c2)OCO3)s1` the inhibition was 3.6% (inactive). With `Cc1nc2sc(C(c3ccc(Cl)cc3)N3CC(C)OC(C)C3)c(O)n2n1` (centres undefined) the inhibition was -4.4% (inactive). For `N#Cc1c(N)nc(SCC(=O)NCc2ccc3c(c2)OCO3)c(C#N)c1-c1cccs1`, the inhibition was 0.2% (inactive). With `COc1ccc(C(=O)c2c(C(F)(F)F)oc3c2C(=O)c2ccccc2C3=O)cc1` the inhibition was -14.9% (inactive). In the case of `Cn1nc(CC(=O)NC2CCCCCC2)c2ccccc2c1=O`, the inhibition is reported as -17.6% (inactive). With `O=C(O)C1CCC(N2C(=O)C3CCCCC3C2=O)CC1` (centres undefined) the inhibition was -0.4% (inactive). For `O=C(Cn1ncc2c(=O)oc3ccccc3c21)NCCC1=CCCCC1`, the inhibition was -3.1% (inactive). For `Nc1nnnn1/N=C/C(Br)=C/c1ccccc1`, the inhibition was 1.2% (inactive). In the case of `CCOc1ccc(-n2cc(C(=O)NCc3ccco3)c3cc(OC)c(OC)cc3c2=O)cc1`, the inhibition is reported as -5.9% (inactive). With `Nc1c(C(=O)NC2CCCC2)c2nc3ccccc3nc2n1N` the inhibition was -22.3% (inactive). With `CCCn1c(=O)c2ccccc2n2c(SCC(=O)NCc3cccs3)nnc12` the inhibition was -5.9% (inactive). In the case of `Cc1cc(S(=O)(=O)NCCN2CCOCC2)c(C)s1`, the inhibition is reported as 4.3% (inactive). For `CC(C)(C)SCCNC(=O)CN(c1ccc(F)cc1)S(C)(=O)=O`, the inhibition was -2.5% (inactive). For `OCCNCC(O)Cn1ccc2ccccc21` (centres undefined), the inhibition was -2.9% (inactive). For `Cc1cc(N2CCOCC2)c2c(N)c(C)cc(C)c2n1`, the inhibition was -8.7% (inactive). In the case of `Cc1cc(C)c(C#N)c(SCc2nc3ccccc3[nH]2)n1`, the inhibition is reported as -5.7% (inactive). With `O=C(OCn1ncc(Br)c(Br)c1=O)c1c(F)cccc1F` the inhibition was -3.7% (inactive). For `O=C1C2CCCN2C(c2cccnc2)N1c1ccc(Cl)c(Cl)c1` (centres undefined), the inhibition was 3.6% (inactive). In the case of `CCN1C(=O)CSC1=NC12CC3CC(CC(C3)C1)C2`, the inhibition is reported as -5.5% (inactive). For `CCCOC(=O)NC(CC)COC(=O)Nc1cccc(C)c1C` (centres undefined), the inhibition was -5% (inactive). With `CCOc1ccccc1/C=N/Nc1ccccc1[N+](=O)[O-]` the inhibition was -0.7% (inactive). For `Cc1cccc(NC(=O)Cn2nc(C(F)(F)F)cc2C2CC2)c1`, the inhibition was -14.3% (inactive). For `COc1cc(CC(=O)Nc2ncc(C)s2)cc(OC)c1OC`, the inhibition was -7.4% (inactive). With `O=c1n(Cc2ccccc2F)c2ccccc2n1Cc1ccccc1F` the inhibition was 5.3% (inactive). For `COC(=O)CSc1nc2nc(C)c(Br)cc2[nH]1`, the inhibition was 1.5% (inactive). With `CCOC(=O)C1C(=O)NC(N2CCCCC2)=NC1c1ccco1` (centres undefined) the inhibition was -0.9% (inactive). In the case of `O=S(=O)(c1ccc2c(c1)OCCCO2)N1CCNCC1`, the inhibition is reported as 0.7% (inactive). For `O=C(CCCCCN1C(=O)c2ccccc2C1=O)Nc1nccs1`, the inhibition was 8.8% (inactive). In the case of `CCC(=O)c1c[nH]c(C(=O)NCC2CCCO2)c1` (centres undefined), the inhibition is reported as -0.5% (inactive). With `O=C(NCc1cccs1)c1nc2c(nnn2Cc2ccccc2Cl)c(=O)[nH]1` the inhibition was -3.6% (inactive). With `O=C(NC1CC1)c1ccc(S(=O)(=O)NCC2CCCCC2)cc1` the inhibition was -2.7% (inactive). For `COC(=O)CCC(=O)Nc1cccc(Br)c1`, the inhibition was 4.9% (inactive). In the case of `CCN1CCN(CC(=O)Nc2nc3ccc(OC)cc3s2)CC1`, the inhibition is reported as -8.7% (inactive). In the case of `Cc1ccc(CNC(=O)Cn2ccc3ccccc3c2=O)o1`, the inhibition is reported as -10.7% (inactive). With `N=c1nc(N)nc2n1NC(c1ccc(F)cc1)=CS2` the inhibition was -1.7% (inactive). In the case of `CCOC(=O)C1=C(c2ccccc2)OC(N)=C(C#N)C1c1ccco1` (centres undefined), the inhibition is reported as -12.1% (inactive). With `O=C(NCc1ccncc1)c1ccc(Br)cc1` the inhibition was 0.2% (inactive). For `CCOC(=O)/C(=C\c1cccnc1)C(=O)c1cc(C(C)=O)c(Nc2ccccc2)s1`, the inhibition was 5.1% (inactive). In the case of `CC(=O)Nc1nc2n(n1)C(c1ccc(F)cc1)C=C(c1ccccc1)N2` (centres undefined), the inhibition is reported as 13.3% (inactive). In the case of `CCCn1c(SCC(=O)NCc2ccco2)nnc1C(C)C`, the inhibition is reported as -5.7% (inactive). For `Cc1cccnc1N(C(=O)Nc1ccccc1)C1=NCC(C)(C)S1`, the inhibition was -10.2% (inactive). With `C=CCn1c(=O)c2c(nc3n2CC(C)CN3c2cccc(OC)c2)n(C)c1=O` (centres undefined) the inhibition was -8.1% (inactive). For `Cc1ccccc1-c1nc(CN2CCC(C(=O)NCCCN3CC(C)CC(C)C3)CC2)c(C)o1` (centres undefined), the inhibition was 0.8% (inactive). For `CC(=O)NC1CC2CCCC(C1)N2` (centres undefined), the inhibition was -18.6% (inactive). With `Cc1nc(SCc2ccc(Br)cc2)[nH]c(=O)c1C` the inhibition was -1.2% (inactive). With `COc1ccc(-c2cc(=O)[nH]c(NCc3ccccc3)n2)cc1` the inhibition was -1.7% (inactive).

Same assay, conditions: cell-based imaging, cytoskeleton assembly phenotype, high content; cell count; at 10 µM; stronger effect = lower value
For `COc1cc(C2C(C#N)=C(N)Oc3cc(N(C)C)ccc32)cc2c1OCO2` (centres undefined), the cell count was 39.3%.
